Laboratory results taken from the kinase profiling compilation of Christmann-Franck et al. (2016).

Legend:
Assay in all cases: KINOMEscan competition binding
Conditions in all cases: compound 10.0 µM
[1] = system: ABL1 (human), P00519 [M351T]
ACVR2A (human) = ACVR2A (human) (UniProt P27037)
AURKB (human) = AURKB (human) (UniProt Q96GD4)
BMPR1A (human) = BMPR1A (human) (UniProt P36894)
CAMK2G (human) = CAMK2G (human) (UniProt Q13555)
CDC42BPA (human) = CDC42BPA (human) (UniProt Q5VT25)
CDC42BPG (human) = CDC42BPG (human) (UniProt Q6DT37)
CDK17 (human) = CDK17 (human) (UniProt Q00537)
CDK5 (human) = CDK5 (human) (UniProt Q00535)
CHEK1 (human) = CHEK1 (human) (UniProt O14757)
CLK4 (human) = CLK4 (human) (UniProt Q9HAZ1)
CSNK1A1L (human) = CSNK1A1L (human) (UniProt Q8N752)
DAPK2 (human) = DAPK2 (human) (UniProt Q9UIK4)
DMPK (human) = DMPK (human) (UniProt Q09013)
FGFR1 (human) = FGFR1 (human) (UniProt P11362)
[2] = system: FLT3 (human), P36888 [N841I]
FRK (human) = FRK (human) (UniProt P42685)
INSR (human) = INSR (human) (UniProt P06213)
INSRR (human) = INSRR (human) (UniProt P14616)
[3] = biological target: JAK3 JH1 catalytic (human) (UniProt P52333)
[4] = system: KIT (human), P10721 [V559D]
MAP3K11 (human) = MAP3K11 (human) (UniProt Q16584)
MAP4K3 (human) = MAP4K3 (human) (UniProt Q8IVH8)
MAPK8 (human) = MAPK8 (human) (UniProt P45983)
MARK3 (human) = MARK3 (human) (UniProt P27448)
MERTK (human) = MERTK (human) (UniProt Q12866)
MST1R (human) = MST1R (human) (UniProt Q04912)
NEK9 (human) = NEK9 (human) (UniProt Q8TD19)
PAK3 (human) = PAK3 (human) (UniProt O75914)
PIK3C2B (human) = PIK3C2B (human) (UniProt O00750)
PIK3CD (human) = PIK3CD (human) (UniProt O00329)
PLK1 (human) = PLK1 (human) (UniProt P53350)
PRKAA2 (human) = PRKAA2 (human) (UniProt P54646)
STK11 (human) = STK11 (human) (UniProt Q15831)
STK17A (human) = STK17A (human) (UniProt Q9UEE5)
STK24 (human) = STK24 (human) (UniProt Q9Y6E0)
STK4 (human) = STK4 (human) (UniProt Q13043)
TGFBR2 (human) = TGFBR2 (human) (UniProt P37173)
TLK2 (human) = TLK2 (human) (UniProt Q86UE8)
[5] = biological target: TYK2 JH1 catalytic (human) (UniProt P29597)

Sequence of CAMK2G (human) (Q13555 whole entry, looked up): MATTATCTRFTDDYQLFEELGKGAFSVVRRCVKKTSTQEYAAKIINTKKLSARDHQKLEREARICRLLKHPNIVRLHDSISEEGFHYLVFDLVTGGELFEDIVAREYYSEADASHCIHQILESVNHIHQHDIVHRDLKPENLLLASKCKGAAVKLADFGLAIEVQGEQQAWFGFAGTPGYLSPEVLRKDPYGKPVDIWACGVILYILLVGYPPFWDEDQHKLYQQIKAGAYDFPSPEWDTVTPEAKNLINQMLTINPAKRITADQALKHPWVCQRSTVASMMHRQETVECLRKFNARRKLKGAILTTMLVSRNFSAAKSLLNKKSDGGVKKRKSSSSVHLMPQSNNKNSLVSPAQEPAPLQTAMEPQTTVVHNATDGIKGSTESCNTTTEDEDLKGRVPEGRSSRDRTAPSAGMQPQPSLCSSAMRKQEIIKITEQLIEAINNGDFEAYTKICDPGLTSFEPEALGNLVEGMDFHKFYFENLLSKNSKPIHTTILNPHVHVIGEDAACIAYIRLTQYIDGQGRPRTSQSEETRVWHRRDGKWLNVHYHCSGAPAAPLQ
Sequence of FGFR1 (human) (P11362 whole entry, looked up): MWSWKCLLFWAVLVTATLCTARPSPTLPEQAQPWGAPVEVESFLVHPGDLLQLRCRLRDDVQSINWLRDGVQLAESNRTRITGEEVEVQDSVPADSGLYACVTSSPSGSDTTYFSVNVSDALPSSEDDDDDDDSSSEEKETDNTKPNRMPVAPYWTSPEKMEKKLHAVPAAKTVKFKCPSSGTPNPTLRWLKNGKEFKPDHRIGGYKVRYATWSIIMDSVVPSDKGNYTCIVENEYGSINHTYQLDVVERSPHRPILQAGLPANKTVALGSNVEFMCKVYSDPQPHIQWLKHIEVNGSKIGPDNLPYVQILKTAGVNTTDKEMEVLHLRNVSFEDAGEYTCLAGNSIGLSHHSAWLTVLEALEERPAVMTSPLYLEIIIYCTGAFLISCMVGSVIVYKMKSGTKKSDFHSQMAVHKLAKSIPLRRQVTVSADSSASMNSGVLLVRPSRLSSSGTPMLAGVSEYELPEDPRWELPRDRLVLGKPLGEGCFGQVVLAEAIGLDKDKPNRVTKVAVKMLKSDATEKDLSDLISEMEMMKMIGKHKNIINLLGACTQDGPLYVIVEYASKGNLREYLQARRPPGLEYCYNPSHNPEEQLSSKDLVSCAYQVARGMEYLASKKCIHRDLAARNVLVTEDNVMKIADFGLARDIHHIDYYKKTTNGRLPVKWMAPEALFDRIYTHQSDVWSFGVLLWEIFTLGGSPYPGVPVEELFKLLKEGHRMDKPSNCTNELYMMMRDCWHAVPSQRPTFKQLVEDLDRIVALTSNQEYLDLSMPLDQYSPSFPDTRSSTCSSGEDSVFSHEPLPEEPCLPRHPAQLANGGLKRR
Sequence of STK17A (human) (Q9UEE5 whole entry, looked up): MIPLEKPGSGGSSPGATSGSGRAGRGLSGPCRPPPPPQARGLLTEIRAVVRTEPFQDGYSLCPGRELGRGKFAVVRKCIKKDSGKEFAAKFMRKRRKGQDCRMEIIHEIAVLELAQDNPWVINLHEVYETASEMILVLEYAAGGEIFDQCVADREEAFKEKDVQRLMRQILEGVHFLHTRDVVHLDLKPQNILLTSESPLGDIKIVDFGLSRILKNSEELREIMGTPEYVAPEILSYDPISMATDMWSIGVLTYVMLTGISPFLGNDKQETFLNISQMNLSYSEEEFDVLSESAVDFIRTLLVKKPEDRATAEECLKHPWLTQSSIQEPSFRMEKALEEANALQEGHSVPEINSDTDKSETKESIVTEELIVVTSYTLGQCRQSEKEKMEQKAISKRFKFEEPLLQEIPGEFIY
Sequence of TGFBR2 (human) (P37173 whole entry, looked up): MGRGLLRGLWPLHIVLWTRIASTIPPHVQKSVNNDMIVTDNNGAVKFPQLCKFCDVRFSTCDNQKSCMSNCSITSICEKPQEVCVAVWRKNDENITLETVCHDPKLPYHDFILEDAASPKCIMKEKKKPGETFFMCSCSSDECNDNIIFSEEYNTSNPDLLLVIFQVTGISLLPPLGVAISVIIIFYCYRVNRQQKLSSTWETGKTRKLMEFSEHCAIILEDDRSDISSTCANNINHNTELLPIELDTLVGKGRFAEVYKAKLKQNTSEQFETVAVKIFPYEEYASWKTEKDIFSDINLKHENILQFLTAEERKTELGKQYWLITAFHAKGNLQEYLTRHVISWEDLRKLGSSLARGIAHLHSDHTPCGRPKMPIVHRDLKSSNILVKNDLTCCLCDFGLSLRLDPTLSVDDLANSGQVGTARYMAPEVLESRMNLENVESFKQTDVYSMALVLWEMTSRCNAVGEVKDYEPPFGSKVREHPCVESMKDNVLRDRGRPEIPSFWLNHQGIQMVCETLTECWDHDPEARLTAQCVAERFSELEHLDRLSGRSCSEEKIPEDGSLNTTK
Sequence of STK4 (human) (Q13043 whole entry, looked up): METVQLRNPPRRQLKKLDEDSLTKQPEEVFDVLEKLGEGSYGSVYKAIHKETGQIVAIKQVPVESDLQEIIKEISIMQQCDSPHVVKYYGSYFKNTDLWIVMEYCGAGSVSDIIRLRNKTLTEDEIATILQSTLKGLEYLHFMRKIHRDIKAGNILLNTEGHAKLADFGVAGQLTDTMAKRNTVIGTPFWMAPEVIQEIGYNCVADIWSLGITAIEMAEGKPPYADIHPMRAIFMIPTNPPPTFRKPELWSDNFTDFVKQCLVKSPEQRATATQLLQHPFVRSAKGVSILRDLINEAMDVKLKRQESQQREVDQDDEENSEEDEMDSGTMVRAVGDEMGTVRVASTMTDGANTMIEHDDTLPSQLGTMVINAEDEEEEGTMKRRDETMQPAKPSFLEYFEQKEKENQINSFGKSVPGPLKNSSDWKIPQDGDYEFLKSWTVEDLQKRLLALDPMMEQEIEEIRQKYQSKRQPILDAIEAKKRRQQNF
Sequence of MAP3K11 (human) (Q16584 whole entry, looked up): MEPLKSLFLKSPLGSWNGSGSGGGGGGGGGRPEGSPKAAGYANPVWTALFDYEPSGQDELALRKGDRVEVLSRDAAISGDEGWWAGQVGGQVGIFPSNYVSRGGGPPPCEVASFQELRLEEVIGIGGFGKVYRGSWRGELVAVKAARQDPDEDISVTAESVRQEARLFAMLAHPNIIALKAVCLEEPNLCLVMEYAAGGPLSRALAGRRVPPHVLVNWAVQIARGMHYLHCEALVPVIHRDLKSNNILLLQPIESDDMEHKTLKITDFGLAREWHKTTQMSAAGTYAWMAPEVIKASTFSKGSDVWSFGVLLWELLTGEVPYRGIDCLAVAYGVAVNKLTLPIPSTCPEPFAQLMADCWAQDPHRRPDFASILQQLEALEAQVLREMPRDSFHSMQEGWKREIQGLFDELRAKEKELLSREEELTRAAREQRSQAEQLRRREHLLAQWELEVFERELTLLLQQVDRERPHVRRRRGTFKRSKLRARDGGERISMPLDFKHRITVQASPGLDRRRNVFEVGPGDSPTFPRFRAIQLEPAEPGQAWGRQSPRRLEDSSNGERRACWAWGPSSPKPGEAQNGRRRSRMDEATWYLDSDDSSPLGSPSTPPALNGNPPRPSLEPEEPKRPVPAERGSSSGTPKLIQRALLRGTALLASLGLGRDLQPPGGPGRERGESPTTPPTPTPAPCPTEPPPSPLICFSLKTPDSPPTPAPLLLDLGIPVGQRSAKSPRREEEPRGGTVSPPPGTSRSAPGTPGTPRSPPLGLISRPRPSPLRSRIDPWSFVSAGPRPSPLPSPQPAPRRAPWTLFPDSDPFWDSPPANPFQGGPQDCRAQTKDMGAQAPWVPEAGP
Sequence of CDK5 (human) (Q00535 whole entry, looked up): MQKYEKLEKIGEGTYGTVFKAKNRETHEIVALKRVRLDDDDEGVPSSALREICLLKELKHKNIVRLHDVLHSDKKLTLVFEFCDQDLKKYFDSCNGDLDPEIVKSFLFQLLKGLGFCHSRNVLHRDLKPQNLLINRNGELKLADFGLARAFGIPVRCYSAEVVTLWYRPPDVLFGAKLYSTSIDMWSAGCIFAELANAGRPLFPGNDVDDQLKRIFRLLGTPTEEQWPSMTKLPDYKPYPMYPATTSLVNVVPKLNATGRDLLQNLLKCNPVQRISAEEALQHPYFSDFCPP
Sequence of NEK9 (human) (Q8TD19 whole entry, looked up): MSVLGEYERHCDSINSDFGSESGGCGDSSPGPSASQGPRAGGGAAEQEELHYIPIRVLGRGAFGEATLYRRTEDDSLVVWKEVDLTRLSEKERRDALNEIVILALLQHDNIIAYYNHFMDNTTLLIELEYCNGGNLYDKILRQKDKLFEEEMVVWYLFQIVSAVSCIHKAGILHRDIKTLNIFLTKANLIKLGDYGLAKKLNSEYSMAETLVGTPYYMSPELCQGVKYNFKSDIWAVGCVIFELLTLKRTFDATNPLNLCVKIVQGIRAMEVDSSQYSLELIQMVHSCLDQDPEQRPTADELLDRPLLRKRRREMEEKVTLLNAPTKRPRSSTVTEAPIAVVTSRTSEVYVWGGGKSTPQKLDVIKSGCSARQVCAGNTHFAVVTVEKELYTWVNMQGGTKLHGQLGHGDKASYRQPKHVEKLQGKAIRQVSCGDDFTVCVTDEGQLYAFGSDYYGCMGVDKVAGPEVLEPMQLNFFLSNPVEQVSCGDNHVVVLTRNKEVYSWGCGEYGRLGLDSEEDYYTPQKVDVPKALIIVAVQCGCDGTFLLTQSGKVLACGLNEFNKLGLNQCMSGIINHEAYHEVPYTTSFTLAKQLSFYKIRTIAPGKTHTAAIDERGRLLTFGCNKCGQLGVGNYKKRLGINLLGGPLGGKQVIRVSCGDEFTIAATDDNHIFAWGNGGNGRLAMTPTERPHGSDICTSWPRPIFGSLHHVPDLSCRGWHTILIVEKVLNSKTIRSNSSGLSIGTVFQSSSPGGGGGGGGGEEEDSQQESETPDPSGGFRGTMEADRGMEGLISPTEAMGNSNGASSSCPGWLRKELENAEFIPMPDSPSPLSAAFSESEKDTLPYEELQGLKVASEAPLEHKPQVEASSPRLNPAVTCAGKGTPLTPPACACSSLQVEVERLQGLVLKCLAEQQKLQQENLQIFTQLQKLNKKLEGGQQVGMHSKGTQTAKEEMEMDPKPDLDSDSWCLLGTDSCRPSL

SMILES | kinase still bound, per cent of control [1] [%] | kinase still bound, per cent of control (ACVR2A (human)) [%] | kinase still bound, per cent of control (AURKB (human)) [%] | kinase still bound, per cent of control (BMPR1A (human)) [%] | kinase still bound, per cent of control (CAMK2G (human)) [%] | kinase still bound, per cent of control (CDC42BPA (human)) [%] | kinase still bound, per cent of control (CDC42BPG (human)) [%] | kinase still bound, per cent of control (CDK17 (human)) [%] | kinase still bound, per cent of control (CDK5 (human)) [%] | kinase still bound, per cent of control (CHEK1 (human)) [%] | kinase still bound, per cent of control (CLK4 (human)) [%] | kinase still bound, per cent of control (CSNK1A1L (human)) [%] | kinase still bound, per cent of control (DAPK2 (human)) [%] | kinase still bound, per cent of control (DMPK (human)) [%] | kinase still bound, per cent of control (FGFR1 (human)) [%] | kinase still bound, per cent of control [2] [%] | kinase still bound, per cent of control (FRK (human)) [%] | kinase still bound, per cent of control (INSR (human)) [%] | kinase still bound, per cent of control (INSRR (human)) [%] | kinase still bound, per cent of control [3] [%] | other results
COc1cc(C(=O)NC2CCN(C)CC2)ccc1Nc1ncc2c(n1)N(C1CCCC1)CCC(=O)N2C(C)C | 100 | 100 | 100 | 100 | 100 | 100 | 100 | 100 | 100 | 100 | 100 | 100 | 100 | 100 | 100 | 100 | 100 | 100 | 100 | 100 | kinase still bound, per cent of control [4]: 100%; kinase still bound, per cent of control (MAP3K11 (human)): 100%; kinase still bound, per cent of control (MAP4K3 (human)): 100%; kinase still bound, per cent of control (MAPK8 (human)): 100%; kinase still bound, per cent of control (MARK3 (human)): 100%; kinase still bound, per cent of control (MERTK (human)): 34%; kinase still bound, per cent of control (MST1R (human)): 100%; kinase still bound, per cent of control (NEK9 (human)): 100%; kinase still bound, per cent of control (PAK3 (human)): 100%; kinase still bound, per cent of control (PIK3C2B (human)): 100%; kinase still bound, per cent of control (PIK3CD (human)): 100%; kinase still bound, per cent of control (PLK1 (human)): 17%; kinase still bound, per cent of control (PRKAA2 (human)): 100%; kinase still bound, per cent of control (STK11 (human)): 100%; kinase still bound, per cent of control (STK17A (human)): 100%; kinase still bound, per cent of control (STK24 (human)): 100%; kinase still bound, per cent of control (STK4 (human)): 100%; kinase still bound, per cent of control (TGFBR2 (human)): 100%; kinase still bound, per cent of control (TLK2 (human)): 100%; kinase still bound, per cent of control [5]: 100%
Nc1ccc(-c2ccc3ncc4ccc(=O)n(-c5cccc(C(F)(F)F)c5)c4c3c2)cn1 | 100 | 95 | 89 | 100 | 95 | 99 | 86 | 98 | 92 | 86 | 34 | 89 | 100 | 95 | 95 | 11 | 100 | 59 | 100 | 100 | kinase still bound, per cent of control [4]: 55%; kinase still bound, per cent of control (MAP3K11 (human)): 96%; kinase still bound, per cent of control (MAP4K3 (human)): 63%; kinase still bound, per cent of control (MAPK8 (human)): 60%; kinase still bound, per cent of control (MARK3 (human)): 100%; kinase still bound, per cent of control (MERTK (human)): 87%; kinase still bound, per cent of control (MST1R (human)): 90%; kinase still bound, per cent of control (NEK9 (human)): 100%; kinase still bound, per cent of control (PAK3 (human)): 100%; kinase still bound, per cent of control (PIK3C2B (human)): 37%; kinase still bound, per cent of control (PIK3CD (human)): 14%; kinase still bound, per cent of control (PLK1 (human)): 94%; kinase still bound, per cent of control (PRKAA2 (human)): 95%; kinase still bound, per cent of control (STK11 (human)): 98%; kinase still bound, per cent of control (STK17A (human)): 100%; kinase still bound, per cent of control (STK24 (human)): 98%; kinase still bound, per cent of control (STK4 (human)): 100%; kinase still bound, per cent of control (TGFBR2 (human)): 84%; kinase still bound, per cent of control (TLK2 (human)): 100%; kinase still bound, per cent of control [5]: 85%
